Experimental data: PubChem BioAssay (NCI)
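GI50 = concentration required for 50% inhibition of growth. TGI denotes the concentration required for complete inhibition of growth.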

Legend:
Test in all cases: inhibition of tumour cell growth, NCI panel, 384-well format
SF-295 CNS = test system: SF-295 CNS
SK-MEL-5 melanoma = test system: SK-MEL-5 melanoma
NCI-H226 lung = test system: NCI-H226 lung
NCI-H522 lung = test system: NCI-H522 lung
DU-145 prostate = test system: DU-145 prostate
SR leukemia = test system: SR leukemia
UACC-62 melanoma = test system: UACC-62 melanoma
NCI-H322M lung = test system: NCI-H322M lung
CAKI-1 renal = test system: CAKI-1 renal
NCI-H23 lung = test system: NCI-H23 lung
HS 578T breast = test system: HS 578T breast
A549 NSCLC = test system: A549 NSCLC
NCI-H460 NSCLC = test system: NCI-H460 NSCLC
TK-10 renal = test system: TK-10 renal
SK-MEL-28 melanoma = test system: SK-MEL-28 melanoma
RXF 393 renal = test system: RXF 393 renal
MDA-MB-468 breast = test system: MDA-MB-468 breast
SW-620 colon = test system: SW-620 colon
MOLT-4 leukemia = test system: MOLT-4 leukemia
CCRF-CEM leukemia = test system: CCRF-CEM leukemia
EKVX NSCLC = test system: EKVX NSCLC
SK-OV-3 ovarian = test system: SK-OV-3 ovarian
PC-3 prostate = test system: PC-3 prostate
KM12 colon = test system: KM12 colon
SNB-19 CNS = test system: SNB-19 CNS
BT-549 breast = test system: BT-549 breast
K-562 leukemia = test system: K-562 leukemia
OVCAR-4 ovarian = test system: OVCAR-4 ovarian
M14 melanoma = test system: M14 melanoma
HCT-15 colon = test system: HCT-15 colon
NCI/ADR-RES ovarian = test system: NCI/ADR-RES ovarian
HL-60(TB) leukemia = test system: HL-60(TB) leukemia
HOP-62 NSCLC = test system: HOP-62 NSCLC
T-47D breast = test system: T-47D breast
OVCAR-8 ovarian = test system: OVCAR-8 ovarian
SF-539 CNS = test system: SF-539 CNS
UO-31 renal = test system: UO-31 renal
OVCAR-3 ovarian = test system: OVCAR-3 ovarian
786-0 renal = test system: 786-0 renal
OVCAR-5 ovarian = test system: OVCAR-5 ovarian
IGROV1 ovarian = test system: IGROV1 ovarian
RPMI-8226 leukemia = test system: RPMI-8226 leukemia
SF-268 CNS = test system: SF-268 CNS
MDA-MB-435 melanoma = test system: MDA-MB-435 melanoma
SNB-75 CNS = test system: SNB-75 CNS
A498 renal = test system: A498 renal
COLO 205 colon = test system: COLO 205 colon
HCC-2998 colon = test system: HCC-2998 colon
U251 glioblastoma = test system: U251 glioblastoma
MCF7 breast = test system: MCF7 breast
LOX IMVI melanoma = test system: LOX IMVI melanoma
UACC-257 melanoma = test system: UACC-257 melanoma
HOP-92 NSCLC = test system: HOP-92 NSCLC
ACHN renal = test system: ACHN renal
SN12C renal = test system: SN12C renal
HT29 colon = test system: HT29 colon
MDA-MB-231 breast = test system: MDA-MB-231 breast
MALME-3M melanoma = test system: MALME-3M melanoma

Compound C[C@@H]1COC(Nc2ccc3ncnc(Nc4ccc(OCc5nccs5)c(Cl)c4)c3c2)=N1 has a GI50 (SF-295 CNS) of 13 µM, a TGI (SF-295 CNS) of 26.2 µM and a GI50 (SK-MEL-5 melanoma) of 1.77 µM. For the same compound, the TGI (SK-MEL-5 melanoma) was 4.21 µM, the GI50 (NCI-H226 lung) was 1.66 µM and the TGI (NCI-H226 lung) was 5.47 µM. The GI50 (NCI-H522 lung) was 0.539 µM, the TGI (NCI-H522 lung) was 2.66 µM and the GI50 (DU-145 prostate) was 3.22 µM. The TGI (DU-145 prostate) was 17.6 µM, the GI50 (SR leukemia) was 7.27 µM and the TGI (SR leukemia) was 20.5 µM. For the same compound, the GI50 (UACC-62 melanoma) was 4.25 µM, the TGI (UACC-62 melanoma) was 16.2 µM and the GI50 (NCI-H322M lung) was 0.337 µM. The TGI (NCI-H322M lung) was 12.9 µM, the GI50 (CAKI-1 renal) was 1.81 µM and the TGI (CAKI-1 renal) was 14.8 µM. It also gave a GI50 (NCI-H23 lung) of 7.4 µM, a TGI (NCI-H23 lung) of 26.3 µM and a GI50 (HS 578T breast) of 4.71 µM. For the same compound, the TGI (HS 578T breast) was 15.6 µM, the GI50 (A549 NSCLC) was 4.91 µM and the TGI (A549 NSCLC) was 19.8 µM. It also gave a GI50 (NCI-H460 NSCLC) of 3.71 µM, a TGI (NCI-H460 NSCLC) of 12.8 µM and a GI50 (TK-10 renal) of 1.48 µM. It also gave a TGI (TK-10 renal) of 17.9 µM, a GI50 (SK-MEL-28 melanoma) of 4.88 µM and a TGI (SK-MEL-28 melanoma) of 17.2 µM. For the same compound, the GI50 (RXF 393 renal) was 5.8 µM, the TGI (RXF 393 renal) was 18.7 µM and the GI50 (MDA-MB-468 breast) was 0.137 µM. For the same compound, the TGI (MDA-MB-468 breast) was 0.342 µM, the GI50 (SW-620 colon) was 19 µM and the TGI (SW-620 colon) was 35.7 µM. The GI50 (MOLT-4 leukemia) was 1.85 µM, the TGI (MOLT-4 leukemia) was 3.59 µM and the GI50 (CCRF-CEM leukemia) was 3.44 µM. For the same compound, the TGI (CCRF-CEM leukemia) was 8.53 µM, the GI50 (EKVX NSCLC) was 0.332 µM and the TGI (EKVX NSCLC) was 11.4 µM. For the same compound, the GI50 (SK-OV-3 ovarian) was 2.2 µM, the TGI (SK-OV-3 ovarian) was 12.5 µM and the GI50 (PC-3 prostate) was 5.36 µM. It also gave a TGI (PC-3 prostate) of 17 µM, a GI50 (KM12 colon) of 5.6 µM and a TGI (KM12 colon) of 18.8 µM. The GI50 (SNB-19 CNS) was 11.1 µM, the TGI (SNB-19 CNS) was 24.5 µM and the GI50 (BT-549 breast) was 3.81 µM. It also gave a TGI (BT-549 breast) of 12.2 µM, a GI50 (K-562 leukemia) of 4.48 µM and a TGI (K-562 leukemia) of 16.6 µM. For the same compound, the GI50 (OVCAR-4 ovarian) was 2.32 µM, the TGI (OVCAR-4 ovarian) was 14.8 µM and the GI50 (M14 melanoma) was 6.3 µM. It also gave a TGI (M14 melanoma) of 18.3 µM, a GI50 (HCT-15 colon) of 5.44 µM and a TGI (HCT-15 colon) of 21.5 µM. It also gave a GI50 (NCI/ADR-RES ovarian) of 2.39 µM, a TGI (NCI/ADR-RES ovarian) of 6.92 µM and a GI50 (HL-60(TB) leukemia) of 3.82 µM. For the same compound, the TGI (HL-60(TB) leukemia) was 8.05 µM, the GI50 (HOP-62 NSCLC) was 4.22 µM and the TGI (HOP-62 NSCLC) was 15 µM. It also gave a GI50 (T-47D breast) of 0.641 µM, a TGI (T-47D breast) of 4.52 µM and a GI50 (OVCAR-8 ovarian) of 3.12 µM. For the same compound, the TGI (OVCAR-8 ovarian) was 12.4 µM, the GI50 (SF-539 CNS) was 12.3 µM and the TGI (SF-539 CNS) was 24.8 µM. It also gave a GI50 (UO-31 renal) of 10.9 µM, a TGI (UO-31 renal) of 23.6 µM and a GI50 (OVCAR-3 ovarian) of 1.83 µM. The TGI (OVCAR-3 ovarian) was 7.84 µM, the GI50 ([…]-0 renal) was 4.26 µM and the TGI (786-0 renal) was 16.9 µM. It also gave a GI50 (OVCAR-5 ovarian) of 6.68 µM, a TGI (OVCAR-5 ovarian) of 28.2 µM and a GI50 (IGROV1 ovarian) of 0.335 µM. It also gave a TGI (IGROV1 ovarian) of 2.13 µM, a GI50 (RPMI-8226 leukemia) of 3.48 µM and a TGI (RPMI-8226 leukemia) of 11 µM. The GI50 (SF-268 CNS) was 9.55 µM, the TGI (SF-268 CNS) was 23.5 µM and the GI50 (MDA-MB-435 melanoma) was 11.8 µM. It also gave a TGI (MDA-MB-435 melanoma) of 24.7 µM, a GI50 (SNB-75 CNS) of 13.5 µM and a TGI (SNB-75 CNS) of 28.2 µM. It also gave a GI50 (A498 renal) of 4.31 µM, a TGI (A498 renal) of 19 µM and a GI50 (COLO 205 colon) of 6.44 µM. For the same compound, the TGI (COLO 205 colon) was 19 µM, the GI50 (HCC-2998 colon) was 12.3 µM and the TGI (HCC-2998 colon) was 26.7 µM. The GI50 (U251 glioblastoma) was 10.7 µM, the TGI (U251 glioblastoma) was 22.8 µM and the GI50 (MCF7 breast) was 5.96 µM. The TGI (MCF7 breast) was 21.2 µM, the GI50 (LOX IMVI melanoma) was 3.25 µM and the TGI (LOX IMVI melanoma) was 11.6 µM. It also gave a GI50 (UACC-257 melanoma) of 9.37 µM, a TGI (UACC-257 melanoma) of 21.2 µM and a GI50 (HOP-92 NSCLC) of 3.25 µM. For the same compound, the TGI (HOP-92 NSCLC) was 17 µM, the GI50 (ACHN renal) was 0.563 µM and the TGI (ACHN renal) was 17.4 µM. It also gave a GI50 (SN12C renal) of 2.78 µM, a TGI (SN12C renal) of 16.1 µM and a GI50 (HT29 colon) of 6.33 µM. For the same compound, the TGI (HT29 colon) was 19.9 µM, the GI50 (MDA-MB-231 breast) was 9.67 µM and the TGI (MDA-MB-231 breast) was 22.8 µM. For the same compound, the GI50 (MALME-3M melanoma) was 3.43 µM and the TGI (MALME-3M melanoma) was 11.4 µM.
